Test results as given in US20170240522A1, “BENZOTHIOPHENE, BENZYLOXYBENZYLIDENE AND INDOLINE DERIVATIVES USEFUL FOR THE TREATMENT OF TUBERCULOSIS” (priority 2014, published 2017).
Like-named read-outs stand apart in the source and are kept apart here.

What was measured:
ESX-1 = ESX-1 inhibitory activity of inhibitors of mycobacterium virulence (Table VII); format: cell-based, Mycobacterium tuberculosis
EsxA = format: cell-based, Mycobacterium tuberculosis
THP-1 macrophages = assay: Survival of Mtb-infected activated THP-1 macrophages; format: cell-based, human; conditions: activated THP-1, higher MOI, 10 μM
ATP-levels of Mtb = assay: Quantification of intracellular ATP levels; format: cell-based, Mycobacterium tuberculosis; conditions: 10 μM, 24 hours
Experimental: (§1) Bacteria were grown for 24 hours in the presence of test compounds. The BacTiter-Glo microbial cell viability reagent (Promega) was used for the quantification of ATP according to the recommendations of the manufacturer. For EtBr uptake assays, bacteria were washed with PBS containing 0.05% Tween 80, OD600 was adjusted to 0.4 and 100 μl were pipetted into black 96 well plates. EtBr was added (4 μM final concentration) and fluorescence was read every 2 min. at 545/600 nm. Unpaired Student's T-tests were used for statistical analyses.

Mtb transcriptome = assay: RNA-seq and qRT-PCR of compound-treated Mtb; format: cell-based, Mycobacterium tuberculosis
Experimental: For the transcriptomic studies, bacteria were grown under the same conditions as for protein secretion assays. Drug exposure time was 8 hours with 5 μM of compound for RNA-seq experiments and confirmatory qRT-PCR. RNA was extracted with Trizol (Invitrogen) and treated with DNase I (Roche) prior to library preparation or generation of the cDNA template. cDNA was synthesized using the RevertAid First Strand cDNA Synthesis Kit (Fermentas) using random hexamer primer. cDNA corresponding to 10 ng of input RNA was used in each RT-PCR reaction supplemented with specific primer pairs (200 nM each) listed in Table S4 and SYBR-Green master mix (Applied Biosystems). Quantitative RT-PCR reactions were performed with the 7900HT Fast Real-Time PCR System (Applied Biosystems) with the following parameters: 50° C. for 2 min, 95° C. for 10 min, followed by 40 cycles of 95° C. for 15 s and 60° C. for 60 s. Melt curve analysis was used to confirm specific amplification for each primer pair. Unpaired Student's T-tests were used for statistical analyses.
For the RNA-seq library preparation 100 ng of total RNA were used in the TruSeq Stranded mRNA LT kit, according to the instructions provided by the manufacturer (Illumina). A small aliquot was analyzed on Qubit and Fragment Analyzer prior to sequencing on Illumina HiSeq using the TruSeq SR Cluster Generation Kit v3 and TruSeq SBS Kit v3. Data were processed with the Illumina Pipeline Software v1.82. RNA-seq data were deposited in the Gene Expression Omnibus (GEO) server at the National Center for Biotechnology Information (NCBI).
• All analyses in this study were carried out using the M. tuberculosis H37Rv annotation from the TubercuList database (http://tuberculist.epfl.ch/) (Lew et al., 2011). There are 4019 protein coding sequences (CDS) currently annotated in the genome, 73 genes encoding for stable RNAs, small RNAs and tRNAs. In order to quantify protein occupancy and transcription across the entire genome, 3080 intergenic regions (regions flanked by two non-overlapping CDS) were included, resulting in a total of 7172 features. • The single-ended sequence reads generated from RNA-seq experiments were aligned to the M. tuberculosis H37Rv genome (NCBI accession NC_000962.2) using Bowtie2 with default parameters (Langmead and Salzberg, 2012). Read counts for all annotated features were obtained with the htseq-count program (http://www.huber.embl.de/users/anders/HTSeq/doc/count.html). Regions where genes overlapped were excluded from counting. Reads spanning more than one feature were counted for each feature. Since the RNA library was strand-specific, the orientation of sequence reads had to correspond to the orientation of annotated features to be counted. Analysis of differential gene expression was carried out using the DESeq package (Anders and Huber, 2010).

[1] = tested on: Mtb expressing GFP in infected fibroblasts; format: cell-based, Mycobacterium tuberculosis; conditions: compound concentration 5 μM (FIG. 2D)
[2] = tested on: mycobacterial outer membrane permeability; assay: Ethidium bromide (EtBr) uptake assay; format: cell-based, Mycobacterium tuberculosis; conditions: 10 μM
Experimental: as §1
To investigate whether BBH7 alters mycobacterial outer membrane permeability, which might explain the transcriptomic pattern associated with metal-ion toxicity, the Applicant performed ethidium bromide (EtBr) uptake assays after treatment with the compounds of interest. These assays identify altered outer membrane permeability by an increase of fluorescence after binding of EtBr to bacterial nucleic acids. […] This was not observed with BTP15.

MprB = target: T1, MprB (Mycobacterium tuberculosis, UniProt P9WGL1); assay: MprB autophosphorylation assay; format: biochemical
T1 construct: MprB lacking its N-terminal transmembrane domain was incubated with [γ-32P]ATP; His6; made in house; host or cells: E. coli BL21 (DE3), vector pQE80L
T1 sequence (P9WGL1 185-504 limits assumed): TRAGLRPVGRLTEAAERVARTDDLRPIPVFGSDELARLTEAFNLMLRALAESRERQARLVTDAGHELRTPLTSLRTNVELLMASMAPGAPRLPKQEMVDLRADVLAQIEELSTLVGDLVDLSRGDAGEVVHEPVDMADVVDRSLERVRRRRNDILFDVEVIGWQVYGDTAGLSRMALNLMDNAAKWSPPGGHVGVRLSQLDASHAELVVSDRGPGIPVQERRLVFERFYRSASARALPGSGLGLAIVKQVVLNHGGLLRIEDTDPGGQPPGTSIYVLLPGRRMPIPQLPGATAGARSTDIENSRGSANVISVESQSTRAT

[3] = tested on: Mtb-infected THP-1 macrophages; format: cell-based, human
MRC-5 lung fibroblasts = assay: Fibroblast survival assay (FSA); format: cell-based; conditions: Homo sapiens, MRC5; read-out: IC50 of protection of fibroblasts
Ag85 complex proteins = format: cell-based, Mycobacterium tuberculosis
[4] = tested on: Mtb-GFP inside activated THP-1 cells; format: cell-based, Mycobacterium tuberculosis; conditions: activated THP-1, 10 μM
[5] = tested on: several other mycobacteria and non-mycobacterial pathogens; assay: REMA assay of non-Mtb strains; format: cell-based
Mtb-Erdman = assay: Growth of Mtb in 7H9 broth; format: cell-based, Mycobacterium tuberculosis; conditions: 25 μM

Experimental for GroEL: In brief, 30 ml of bacteria grown to mid-logarithmic phase (OD600 of 0.6 to 0.7) in Sauton's medium supplemented with 0.05% Tween 80 were centrifuged and resuspended in Sauton's medium without Tween. Compounds were added at concentrations as indicated and cells were grown further at 37° C. with shaking for 4 days. Cultures were harvested by centrifugation to obtain culture filtrates and cell pellets. Culture filtrates were concentrated 100-fold in 5-kDa cutoff Vivaspin columns (Sartorius). Cell lysates were prepared by bead beating bacterial pellets in lysis buffer with 100-μm glass beads.
For immunoblot analysis, 5 μg of protein were resolved by SDS-gel electrophoresis and transferred to nitrocellulose membranes. Membranes were blocked with TBS-buffer (3% milk powder) and incubated overnight with the desired primary antibody diluted in TNT-buffer supplemented with 1% BSA fraction V. Membranes were washed with TNT, incubated with the appropriate secondary antibody in TNT-BSA, washed again with TNT, and developed. GroEL2 was used as a lysis control for culture filtrates and as a loading control for cell lysates.

COc1ccc(CNCC(O)COc2ccc3c(C(N)=O)c(NC(=O)C4CC4)sc3c2)cc1 (stereo not drawn) [D45756]
Activity (ESX-1): 32%

COc1ccc([N+](=O)[O-])cc1COc1ccc(/C(C)=N/NC(=S)SC)cc1 [D22648]
Activity (ESX-1): 65%

CC[C@@H](CO)NCCN[C@@H](CC)CO [ethambutol, reference compound]
GroEL in the culture filtrate (cell lysis) (GroEL; 5× MIC): cell lysis
EsxA secretion (EsxA; 0.5× MIC): no effect

CC(C)c1ccc(NC(=O)Nc2sc3cc(O)ccc3c2C(N)=O)cc1 [D39317]
Activity (ESX-1): 33%

CNC(=O)Nc1sc2c(C(C)C)cc(N)cc2c1C(N)=O [D63134]
Activity (ESX-1): 26%

CNC(=O)Nc1sc2c(Cl)c(O)c(Cl)cc2c1C(N)=O [D60166]
Activity (ESX-1): 55%

NC(=O)c1c(NC(=O)C2CC2)sc2cc(O)c(Br)cc12 [BTP15, 5 -Bromo-2-(cyclopropanecarbonyl-amino)-6-hydroxy-benzo[b]thiophene-3-carboxylic acid amide]
protection of THP-1 cells from Mtb-induced cell death (THP-1 macrophages): protected THP-1 cells from Mtb-induced cell death
mycobacterial ATP levels (ATP-levels of Mtb): no impact
significantly downregulated genes (number) (Mtb transcriptome; RNA-seq, 5 μM): 18 genes
differentially regulated genes (number) (Mtb transcriptome; RNA-seq, 5 μM, 8 hours): 35 genes
differential regulation (upregulation) of espA (Mtb transcriptome; qRT-PCR): > 2 fold
downregulation of DosR/MprAB associated genes (Mtb transcriptome; qRT-PCR): > 1.5 fold
mprA expression (Mtb transcriptome; qRT-PCR, after 24 and 48 hours of drug treatment): significantly down-regulated
GFP fluorescence of Mtb in infected fibroblasts [1]: comparable to the untreated control
EtBr accumulation and fluorescence [2]: not observed
MprB auto-phosphorylation (MprB): dose-dependent inhibition
rate of bacteria in acidic compartments (Lysotracker Red co-localization) [3]: significantly higher rate
IC50 (MRC-5 lung fibroblasts): 1200 nM
GroEL in the culture filtrate (cell lysis) (GroEL; BBH7 and BTP15 treatment): not observed
Ag85 secretion (Ag85 complex proteins; 20 μM): reduced Ag85 secretion
Ag85 secretion (Ag85 complex proteins; concentrations ≦10 μM): only slightly affected at best
Activity (ESX-1): 92%
intracellular bacterial load [4]: greatly reduced the intracellular bacterial load
EsxA secretion (EsxA): dose-dependent secretion inhibition
EsxA secretion (EsxA; 20 μM): blocked EsxA secretion fully
MIC99 [5]: > 100 µM
growth inhibition of Mtb (Mtb-Erdman): no growth inhibition

C/C(=N\NC(=S)Nc1cccc(Cl)c1Cl)c1ccc(OCc2ccccc2)cc1 [D23579]
Activity (ESX-1): 75%

C/C(=N\NC(=S)Nc1ccc(F)c(Cl)c1)c1ccc(OCc2ccccc2)cc1 [D23251]
Activity (ESX-1): 34%

CCc1cc(C(N)=S)ccn1 [ethionamide, reference compound]
GroEL in the culture filtrate (cell lysis) (GroEL; 5× MIC): cell lysis
EsxA secretion (EsxA): no effect

[Cu] [copper]
EsxA secretion (EsxA; elevated concentrations of copper): no effect

CSC(=S)N/N=C(\C)c1ccc(OCc2ccc(Br)cc2)cc1 [D22671]
Activity (ESX-1): 51%

NC(=O)c1c(NC(=O)Nc2cccc(C(F)(F)F)c2)sc2cc(O)ccc12 [D39321]
Activity (ESX-1): 45%

Nc1ncnc2c1ncn2[C@@H]1O[C@H](COP(=O)(O)OP(=O)(O)NP(=O)(O)O)[C@@H](O)[C@H]1O [AMP-PNP]
MprB auto-phosphorylation (MprB; 1 mM): no effect
phosphohistidine signal of MprB (MprB; 10 mM): only incomplete reduction

CC(=O)Oc1cc2sc(NC(N)=O)c(C(N)=O)c2cc1Br [D71014]
Activity (ESX-1): 90%

CSc1ccc(NC(=O)Nc2sc3cc(O)ccc3c2C(N)=O)cc1 [D38979]
Activity (ESX-1): 60%

CC(=O)Nc1ccc(/C=N/NC(N)=S)cc1 [thiacetazone, reference compound]
GroEL in the culture filtrate (cell lysis) (GroEL; 5× MIC): cell lysis
EsxA secretion (EsxA; 0.5× MIC): no effect

CSC(=S)N/N=C(\C)c1ccc(OCc2cccc([N+](=O)[O-])c2)cc1 [D22663]
Activity (ESX-1): 47%

O=S(=O)([O-])[O-].[Zn+2] [zinc, ZnSO4]
Ag85 secretion (Ag85 complex proteins; media containing elevated levels of ZnSO4): remained unchanged
secretion of EsxA (EsxA; 500 μM zinc): sixfold increase

CC(=O)Oc1c(Cl)cc2c(C(N)=O)c(NC(=O)Nc3cccc(CN(C)C)c3)sc2c1Cl [D58845]
Activity (ESX-1): 87%

CSC(=S)N/N=C(\C)c1ccc(OCc2cccc(F)c2)cc1 [D22672]
Activity (ESX-1): 94%

CSC(=S)N/N=C(\C)c1ccc(OCc2cccc(Cl)c2)cc1 [D22646]
Activity (ESX-1): 76%

CC(=O)Oc1cc2sc(NC(=O)C3CC3)c(C(N)=O)c2cc1Br [D70866]
Activity (ESX-1): 80%

NC(=O)c1c(NC(=O)Nc2cccc(Cl)c2)sc2cc(O)ccc12 [D39322]
Activity (ESX-1): 40%

CC(=O)Oc1c(Cl)cc2c(C(N)=O)c(NC(=O)Nc3ccc(C(C)C)cc3)sc2c1Cl [D51275]
Activity (ESX-1): 41%

COC(=O)c1cccc(NC(=O)Nc2sc3c(Cl)c(OC(C)=O)c(Cl)cc3c2C(N)=O)c1 [D58298]
Activity (ESX-1): 33%

NNC(=O)c1ccncc1 [Isoniazid, reference compound]
GroEL in the culture filtrate (cell lysis) (GroEL; 5× MIC): cell lysis
EsxA secretion (EsxA; 0.5× MIC): no effect

NC(=O)Nc1sc2cc(O)c(Br)cc2c1C(N)=O [D70865]
Activity (ESX-1): 77%

CSC(=S)N/N=C(\C)c1ccc(OCc2ccc([N+](=O)[O-])cc2)cc1 [D22647]
Activity (ESX-1): 30%

CSC(=S)N/N=C(\C)c1ccc(OCc2cccc(Br)c2)cc1 [D22670]
Activity (ESX-1): 67%

NC(=O)c1c(NC(=O)Nc2ccc(F)c(Cl)c2)sc2c(Cl)c(O)c(Cl)cc12 [D49399]
Activity (ESX-1): 33%
